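These data come from cells grown in 96-well plates and exposed to compound for 48 hours at five concentrations. Here, GI50 denotes the concentration required for 50% inhibition of growth. TGI marks complete inhibition of growth.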
Legend:
Assay in all cases: NCI tumour cell line growth inhibition, 48 h
[1] = system: 786-0 renal
[2] = system: A549 NSCLC
[3] = system: ACHN renal
[4] = system: BT-549 breast
[5] = system: CAKI-1 renal
[6] = system: CCRF-CEM leukemia
[7] = system: COLO 205 colon
[8] = system: DU-145 prostate
[9] = system: EKVX NSCLC
[10] = system: HCC-2998 colon
[11] = system: HCT-116 colon
[12] = system: HCT-15 colon
[13] = system: HL-60(TB) leukemia
[14] = system: HOP-62 NSCLC
[15] = system: HOP-92 NSCLC
[16] = system: HT29 colon
[17] = system: IGROV1 ovarian
[18] = system: K-562 leukemia
[19] = system: KM12 colon
[20] = system: LOX IMVI melanoma
[21] = system: M14 melanoma
[22] = system: MALME-3M melanoma
[23] = system: MCF7 breast
[24] = system: MDA-MB-231 breast
[25] = system: MDA-MB-435
[26] = system: MOLT-4 leukemia
[27] = system: NCI-H226 lung
[28] = system: NCI-H23 lung
[29] = system: NCI-H460 lung
[30] = system: NCI-H522 lung
[31] = system: NCI/ADR-RES ovarian
[32] = system: OVCAR-4 ovarian
[33] = system: OVCAR-5 ovarian
[34] = system: OVCAR-8 ovarian
[35] = system: PC-3 prostate
[36] = system: RPMI-8226 leukemia
[37] = system: SF-268 CNS
[38] = system: SF-295 CNS
[39] = system: SF-539 CNS
[40] = system: SK-MEL-2 melanoma
[41] = system: SK-MEL-28 melanoma
[42] = system: SK-MEL-5 melanoma
[43] = system: SN12C renal
[44] = system: SNB-19 CNS
[45] = system: SNB-75 CNS
[46] = system: SR leukemia
[47] = system: SW-620 colon
[48] = system: TK-10 renal
[49] = system: U251 CNS
[50] = system: UACC-257 melanoma
[51] = system: A498 renal
[52] = system: HS 578T breast
[53] = system: OVCAR-3 ovarian
[54] = system: RXF 393 renal
[55] = system: SK-OV-3 ovarian
[56] = system: UACC-62 melanoma
[57] = system: UO-31 renal

Cc1c(CN)c(C)c(CN)c(C)c1CN
TGI [1]: > 100 µM | TGI [2]: > 100 µM | TGI [3]: > 100 µM | TGI [4]: > 100 µM | TGI [5]: > 100 µM | TGI [6]: > 100 µM | TGI [7]: > 100 µM | TGI [8]: > 100 µM | TGI [9]: > 100 µM | TGI [10]: > 100 µM | TGI [11]: > 100 µM | TGI [12]: > 100 µM | TGI [13]: > 100 µM | TGI [14]: > 100 µM | TGI [15]: > 100 µM | TGI [16]: > 100 µM | TGI [17]: > 100 µM | TGI [18]: > 100 µM | TGI [19]: > 100 µM | TGI [20]: > 100 µM | TGI [21]: > 100 µM | TGI [22]: > 100 µM | TGI [23]: > 100 µM | TGI [24]: > 100 µM | TGI [25]: > 100 µM | TGI [26]: > 100 µM | TGI [27]: > 100 µM | TGI [28]: 94.5 µM | TGI [29]: > 100 µM | TGI [30]: > 100 µM | TGI [31]: > 100 µM | TGI [32]: > 100 µM | TGI [33]: > 100 µM | TGI [34]: > 100 µM | TGI [35]: > 100 µM | TGI [36]: > 100 µM | TGI [37]: > 100 µM | TGI [38]: > 100 µM | TGI [39]: > 100 µM | TGI [40]: > 100 µM | TGI [41]: > 100 µM | TGI [42]: > 100 µM | TGI [43]: > 100 µM | TGI [44]: > 100 µM | TGI [45]: > 100 µM | TGI [46]: > 100 µM | TGI [47]: > 100 µM | TGI [48]: > 100 µM | TGI [49]: > 100 µM | TGI [50]: > 100 µM

Nc1c(C(=O)Nc2ccccc2)sc2nc3c(cc12)C(O)CCC3 (stereo not given)
GI50 [1]: 0.623 µM | TGI [1]: > 100 µM | GI50 [51]: 0.273 µM | TGI [51]: > 100 µM | GI50 [2]: 0.406 µM | TGI [2]: > 100 µM | GI50 [3]: 0.981 µM | TGI [3]: > 100 µM | GI50 [4]: 1.24 µM | TGI [4]: > 100 µM | GI50 [5]: 0.349 µM | TGI [5]: > 100 µM | GI50 [6]: 0.323 µM | TGI [6]: > 100 µM | GI50 [7]: 0.295 µM | TGI [7]: 2.63 µM | GI50 [8]: 0.355 µM | TGI [8]: > 100 µM | GI50 [10]: 1.07 µM | TGI [10]: > 79.3 µM | GI50 [11]: 0.488 µM | TGI [11]: > 100 µM | GI50 [12]: 0.336 µM | TGI [12]: > 100 µM | GI50 [13]: 0.232 µM | TGI [13]: 0.706 µM | GI50 [14]: 0.455 µM | TGI [14]: > 100 µM | GI50 [15]: 0.264 µM | TGI [15]: > 100 µM | GI50 [52]: 0.362 µM | TGI [52]: > 100 µM | GI50 [16]: 0.323 µM | GI50 [17]: 0.65 µM | TGI [17]: > 100 µM | GI50 [18]: 0.196 µM | TGI [18]: > 100 µM | GI50 [19]: 0.44 µM | TGI [19]: > 100 µM | GI50 [20]: 0.638 µM | TGI [20]: > 100 µM | GI50 [21]: 0.281 µM | TGI [21]: > 100 µM | GI50 [22]: 0.256 µM | TGI [22]: > 100 µM | GI50 [23]: 0.241 µM | TGI [23]: > 100 µM | GI50 [24]: 0.946 µM | TGI [24]: > 100 µM | GI50 [26]: 0.491 µM | TGI [26]: > 100 µM | GI50 [27]: 1.27 µM | TGI [27]: > 100 µM | GI50 [28]: 0.665 µM | TGI [28]: > 100 µM | GI50 [29]: 0.355 µM | TGI [29]: > 100 µM | GI50 [30]: 0.28 µM | GI50 [53]: 0.344 µM | TGI [53]: > 100 µM | GI50 [32]: 3.66 µM | TGI [32]: > 100 µM | GI50 [34]: 0.471 µM | TGI [34]: > 100 µM | GI50 [35]: 0.325 µM | TGI [35]: > 100 µM | GI50 [36]: 0.372 µM | TGI [36]: > 100 µM | GI50 [54]: 0.349 µM | TGI [54]: > 100 µM | GI50 [37]: 0.7 µM | TGI [37]: > 100 µM | GI50 [38]: 0.297 µM | TGI [38]: > 100 µM | GI50 [39]: 0.225 µM | TGI [39]: 0.604 µM | GI50 [42]: 0.407 µM | TGI [42]: 23.9 µM | GI50 [55]: 0.439 µM | TGI [55]: > 100 µM | GI50 [43]: 0.559 µM | TGI [43]: > 100 µM | GI50 [44]: 0.577 µM | TGI [44]: > 100 µM | GI50 [45]: 0.278 µM | TGI [45]: > 100 µM | GI50 [46]: 0.168 µM | TGI [46]: > 100 µM | GI50 [47]: 0.371 µM | TGI [47]: > 100 µM | GI50 [48]: > 100 µM | TGI [48]: > 100 µM | GI50 [49]: 0.362 µM | TGI [49]: > 100 µM | GI50 [50]: > 100 µM | TGI [50]: > 100 µM | GI50 [56]: 0.444 µM | TGI [56]: > 100 µM | GI50 [57]: 0.689 µM | TGI [57]: > 100 µM

Reference: PubChem BioAssay (NCI)
